Experimental data reported in article PMC9675574 (JCI Insight, 2022).
Like-named read-outs stand apart in the source and are kept apart here.

What was measured:
[1] = biological target: mouse trypsin isoform T7 (cationic trypsin) (Mus musculus, UniProt Q9CPN9); assay type: biochemical; conditions: GPR-pNA, 24°C
Method: (§1) Recombinant human and mouse trypsinogens were expressed in Escherichia coli BL21(DE3) (Invitrogen), refolded in vitro, and purified by ecotin affinity chromatography (Pharmacia FPLC), according to published protocols ([60], [63], [64]). Sulfated human trypsinogens were purified from archived samples of human pancreatic juice, as described previously, with minor modifications ([65], [66]). Briefly, 50 mg freeze-dried pancreatic juice was dissolved in 2 mL 10 mM HCl, clarified by centrifugation (21,000g, 5 minutes, 4°C), and loaded onto a MonoQ 5/50 GL column equilibrated with 20 mM Tris-HCl (pH 8.0). Proteins were eluted with a 0–0.5 M NaCl gradient at 1 mL/min flow rate for 30 minutes. The fractions containing the cationic and anionic trypsinogens were further purified with ecotin affinity chromatography. The concentration of trypsinogen preparations was estimated from their UV absorbance at 280 nm using the extinction coefficients reported previously for mouse trypsinogens ([64]) and 37,525, 38,890, and 41,535/M/cm for human cationic trypsinogen (PRSS1), anionic trypsinogen (PRSS2), and mesotrypsinogen (PRSS3), respectively. To activate trypsinogen to trypsin, approximately 1 μM solution was incubated at 37°C with 28.2 ng/mL human enterokinase (final concentration) in 0.1 M Tris-HCl (pH 8.0), 10 mM CaCl2, and 0.05% Tween 20 for 1 hour. The activation reaction was followed by measuring trypsin activity: 2 μL trypsin was diluted in 48 μL assay buffer [0.1 M Tris-HCl (pH 8.0), 1 mM CaCl2, and 0.05% Tween 20], and 150 μL of 200 μM GPR-pNA trypsin substrate (in assay buffer) was added. Substrate cleavage resulting in the release of the yellow p-nitroaniline was monitored for 1 minute in a Spectramax Plus 384 microplate reader at 405 nm.
(§2) Michaelis-Menten kinetic parameters of trypsin isoforms were determined with the chromogenic substrate GPR-pNA at 24°C. The trypsin concentration was 1 nM and the substrate concentration was varied typically between 1.56 and 200 μM in a final volume of 200 μL assay buffer. The substrate concentration range was 3.1–400 μM for mouse trypsin isoform T7 and 0.4–50 μM for mouse trypsin isoform T20. Km and kcat values were calculated from hyperbolic fits to plots of reaction velocity versus substrate concentration.
(§3) Michaelis-Menten kinetic parameters were then measured after adding 100 μL trypsin substrate, as described above. […] To determine the Ki, the Km values were plotted as a function of the inhibitor concentration, and the Ki was calculated by dividing the y axis intercept with the slope of the linear fit. This value corresponds to the negative of the x axis intercept. Alternatively, the substrate saturation curves obtained in the absence and presence of the increasing inhibitor concentrations were globally fitted to the competitive inhibition equation y = vmax × (x/[KmObs+ x]), where y is the reaction velocity, vmax is the maximal velocity, x is the substrate concentration, and KmObs = Km × (1 + [I]/Ki), where [I] is the inhibitor concentration. Experiments were performed 3 times and each experiment was analyzed separately. […] Kinetic analysis was performed with the Prism 8 program (GraphPad).

[2] = biological target: mouse trypsin isoform T8 (anionic trypsin) (Mus musculus, UniProt Q9R0T7); test: biochemical; assay type: biochemical; conditions: for kcat / Km: GPR-pNA, 24°C
Method: as §1, §2, §3

[3] = biological target: mouse trypsin isoform T9 (anionic trypsin) (Mus musculus, UniProt Q9QUK9); test: biochemical; assay type: biochemical; conditions: for kcat / Km: GPR-pNA, 24°C; for Ki: mean ± SD, n = 3
Method: as §1, §2, §3

[4] = biological target: human and mouse trypsin isoforms; test: Ki ranges over the panel of trypsin isoforms; assay type: biochemical
Method: Michaelis-Menten kinetic parameters of trypsin isoforms were determined with the chromogenic substrate GPR-pNA at 24°C. […] Km and kcat values were calculated from hyperbolic fits to plots of reaction velocity versus substrate concentration. […] To determine the Ki, the Km values were plotted as a function of the inhibitor concentration, and the Ki was calculated by dividing the y axis intercept with the slope of the linear fit. This value corresponds to the negative of the x axis intercept. […] Experiments were performed 3 times and each experiment was analyzed separately. […] Kinetic analysis was performed with the Prism 8 program (GraphPad).

[5] = biological target: T1, human trypsin isoform PRSS3 (mesotrypsin) (Homo sapiens, UniProt P35030); test: Competitive inhibition kinetics of trypsin, GPR-pNA substrate; assay type: biochemical; conditions: for kcat: GPR-pNA, 24°C; for Ki: mean ± SD, n = 3
T1 construct: made in house; host or cells: Escherichia coli BL21(DE3)
T1 sequence (P35030 81-304 limits assumed): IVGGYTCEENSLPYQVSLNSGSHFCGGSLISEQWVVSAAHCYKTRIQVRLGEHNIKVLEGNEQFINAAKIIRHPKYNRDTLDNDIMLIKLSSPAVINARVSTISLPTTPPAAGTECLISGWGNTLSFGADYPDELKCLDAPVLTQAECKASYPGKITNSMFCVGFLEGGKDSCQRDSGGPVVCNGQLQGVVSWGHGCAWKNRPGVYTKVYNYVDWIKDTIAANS
Method: as §1, §2, §3

[6] = biological target: T2, human trypsin isoform PRSS2 (anionic trypsin), recombinant (Homo sapiens, UniProt P07478); test: as above; assay type: biochemical; conditions: for kcat / Km: GPR-pNA, 24°C; for Ki: mean ± SD, n = 3
T2 construct: made in house; host or cells: Escherichia coli BL21(DE3)
Method: as §1, §2, §3

[7] = biological target: T3, human trypsin isoform PRSS1 (cationic trypsin), recombinant (Homo sapiens, UniProt P07477); test: as above; assay type: biochemical; conditions: for kcat / Km: GPR-pNA, 24°C; for Ki: mean ± SD, n = 3
T3 construct: made in house; host or cells: Escherichia coli BL21(DE3)
Method: as §1, §2, §3

[8] = human volunteers, cited from earlier work
[9] = range over trypsin isoforms tested, read-out: Ki range, individual fit analysis

mouse trypsin isoform T7 (cationic trypsin), sequence (Q9CPN9 entry or part of it): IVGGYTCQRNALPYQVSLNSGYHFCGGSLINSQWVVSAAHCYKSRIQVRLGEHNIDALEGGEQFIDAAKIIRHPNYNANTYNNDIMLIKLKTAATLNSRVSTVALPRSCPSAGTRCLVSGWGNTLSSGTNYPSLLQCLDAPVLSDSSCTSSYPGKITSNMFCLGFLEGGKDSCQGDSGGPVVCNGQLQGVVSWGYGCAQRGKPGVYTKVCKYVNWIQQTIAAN
mouse trypsin isoform T9 (anionic trypsin), sequence (Q9QUK9 24-246): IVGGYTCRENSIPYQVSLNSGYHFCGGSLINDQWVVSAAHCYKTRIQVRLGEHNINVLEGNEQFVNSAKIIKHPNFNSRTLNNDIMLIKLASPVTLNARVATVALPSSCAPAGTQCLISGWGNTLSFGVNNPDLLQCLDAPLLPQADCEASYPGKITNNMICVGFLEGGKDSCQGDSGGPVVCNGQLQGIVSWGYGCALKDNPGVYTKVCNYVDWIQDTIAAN
T2 sequence (P07478 24-247): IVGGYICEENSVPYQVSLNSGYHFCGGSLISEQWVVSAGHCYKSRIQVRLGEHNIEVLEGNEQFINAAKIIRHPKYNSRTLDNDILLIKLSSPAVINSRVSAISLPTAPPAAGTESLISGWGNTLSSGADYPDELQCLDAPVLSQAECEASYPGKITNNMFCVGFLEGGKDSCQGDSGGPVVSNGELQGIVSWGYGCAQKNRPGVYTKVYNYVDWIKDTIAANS
mouse trypsin isoform T8 (anionic trypsin), sequence (Q9R0T7 24-246): as the sequence (Q9QUK9 24-246) above, with I12V, T44S, D218N counted along it

`N=C(N)c1ccccc1` [benzamidine] showed a kcat ([1]; 12.5 μM benzamidine) of 125.4 ± 2.7 per second, a kcat ([1]; 25 μM benzamidine) of 125.5 ± 3.5 per second and a kcat ([1]; 37.5 μM benzamidine) of 135 ± 3.9 per second. The kcat ([1]; 50 μM benzamidine) was 127.9 ± 7.5 per second, the kcat ([2]; 12.5 μM benzamidine) was 103.9 ± 7.9 per second and the kcat ([2]; 25 μM benzamidine) was 105.6 ± 4.9 per second. It also gave a kcat ([2]; 37.5 μM benzamidine) of 100.2 ± 0.8 per second, a kcat ([2]; 50 μM benzamidine) of 105.5 ± 7 per second and a Ki ([2]; mean ± SD, n = 3) of 6700 ± 1300 nM. For the same compound, the kcat ([3]; 12.5 μM benzamidine) was 110 ± 3.4 per second, the kcat ([3]; 25 μM benzamidine) was 111.4 ± 2.8 per second and the kcat ([3]; 37.5 μM benzamidine) was 114.8 ± 2.8 per second. The kcat ([3]; 50 μM benzamidine) was 112.3 ± 4.5 per second, the Ki [3] was 6800 ± 1000 nM and the Ki [4, 9] was 3300 to 20600 nM. The kcat ([5]; 25 μM benzamidine) was 211.9 ± 8.6 per second, the kcat ([5]; 50 μM benzamidine) was 214.2 ± 4.7 per second and the kcat ([5]; 75 μM benzamidine) was 201.3 ± 8 per second. The kcat ([5]; 100 μM benzamidine) was 205.7 ± 6.3 per second, the Ki ([5]; Ki benzamidine, Global fit) was 13300 ± 800 nM and the Ki ([5]; Ki benzamidine, Individual fit) was 15500 ± 2300 nM. It also gave a kcat ([6]; 25 μM benzamidine) of 78.7 ± 1.7 per second, a kcat ([6]; 50 μM benzamidine) of 78.4 ± 1.8 per second and a kcat ([6]; 75 μM benzamidine) of 82.1 ± 2.4 per second. The kcat ([6]; 100 μM benzamidine) was 78.3 ± 4.5 per second, the Ki ([6]; Ki benzamidine, Global fit) was 8900 ± 700 nM and the Ki ([6]; Ki benzamidine, Individual fit) was 8600 ± 2200 nM. For the same compound, the kcat ([7]; 25 μM benzamidine) was 134.8 ± 1.7 per second, the kcat ([7]; 50 μM benzamidine) was 121 ± 3.3 per second and the kcat ([7]; 75 μM benzamidine) was 136.3 ± 9.2 per second. For the same compound, the kcat ([7]; 100 μM benzamidine) was 143.2 ± 8.1 per second, the Ki ([7]; Ki benzamidine, Global fit) was 22500 ± 4000 nM and the Ki ([7]; Ki benzamidine, Individual fit) was 15700 ± 4700 nM.
Work on `[H]/N=C(/N)c1ccc(NCc2nc3cc(C(=O)N(CCC(=O)O)c4ccccn4)ccc3n2C)cc1` [dabigatran] yielded a kcat ([1]; 100 nM dabigatran) of 47.5 ± 2 per second, a kcat ([1]; 150 nM dabigatran) of 50.1 ± 1.5 per second and a kcat ([1]; 200 nM dabigatran) of 49.3 ± 1.7 per second. The “steady-state plasma levels of dabigatran” value ([8]; 100 mg dabigatran etexilate 3 times daily) was “around 50 ng/mL”, the “steady-state plasma levels of dabigatran” value ([8]; 200 mg dabigatran etexilate 3 times daily) was roughly 100 ng/mL and the Ki [2] was 31.6 ± 2.6 nM. For the same compound, the Km ([2]; 50 nM dabigatran) was 20.6 ± 1.5 µM, the kcat ([2]; 50 nM dabigatran) was 90.4 ± 1 per second and the Km ([2]; 100 nM dabigatran) was 34.2 ± 4.1 µM. It also gave a kcat ([2]; 100 nM dabigatran) of 92.3 ± 1.6 per second, a Km ([2]; 150 nM dabigatran) of 46.3 ± 3 µM and a kcat ([2]; 150 nM dabigatran) of 88.9 ± 1.3 per second. It also gave a Km ([2]; 200 nM dabigatran) of 60.8 ± 4 µM, a kcat ([2]; 200 nM dabigatran) of 85.1 ± 7.2 per second and a Km ([3]; 50 nM dabigatran) of 19.8 ± 2.7 µM. For the same compound, the kcat ([3]; 50 nM dabigatran) was 75.8 ± 2 per second, the Km ([3]; 100 nM dabigatran) was 28.3 ± 2.8 µM and the kcat ([3]; 100 nM dabigatran) was 72.5 ± 2.6 per second. For the same compound, the Km ([3]; 150 nM dabigatran) was 46.1 ± 2.4 µM, the kcat ([3]; 150 nM dabigatran) was 78.4 ± 0.1 per second and the Km ([3]; 200 nM dabigatran) was 56.7 ± 7.3 µM. It also gave a kcat ([3]; 200 nM dabigatran) of 77.6 ± 2.5 per second, a Ki ([3]; Ki dabigatran, Global fit) of 35.8 ± 3.5 nM and a Ki ([3]; Ki dabigatran, Individual fit) of 28.4 ± 7.1 nM. The Ki ([4]; all human and mouse trypsin isoforms, read-out: Ki range) was 10 to 79 nM, the Ki ([4]; range over trypsin isoforms tested, read-out: Ki range, global fit analysis) was 10.3 to 78.9 nM and the Ki [4, 9] was 10 to 65 nM. For the same compound, the kcat ([5]; 50 nM dabigatran) was 214.6 ± 4.9 per second, the kcat ([5]; 100 nM dabigatran) was 215.5 ± 4.6 per second and the kcat ([5]; 150 nM dabigatran) was 217.5 ± 10.8 per second. It also gave a kcat ([5]; 200 nM dabigatran) of 220.5 ± 4.1 per second, a Ki ([5]; Ki dabigatran, Global fit) of 51.6 ± 2.1 nM and a Ki ([5]; Ki dabigatran, Individual fit) of 35.1 ± 2.4 nM. It also gave a Km ([6]; 25 nM dabigatran) of 23 ± 1.3 µM, a kcat ([6]; 25 nM dabigatran) of 90.6 ± 2.6 per second and a Km ([6]; 50 nM dabigatran) of 37.6 ± 0.6 µM. The kcat ([6]; 50 nM dabigatran) was 89.1 ± 1.7 per second, the Km ([6]; 75 nM dabigatran) was 46.8 ± 1.5 µM and the kcat ([6]; 75 nM dabigatran) was 90.2 ± 2.3 per second. It also gave a Km ([6]; 100 nM dabigatran) of 61.1 ± 6.1 µM, a kcat ([6]; 100 nM dabigatran) of 87.5 ± 4.4 per second and a Ki ([6]; Ki dabigatran, Global fit) of 14.1 ± 1.1 nM. The Ki ([6]; Ki dabigatran, Individual fit) was 17.9 ± 3.3 nM, the Km ([7]; 25 nM dabigatran) was 31.3 ± 3.6 µM and the kcat ([7]; 25 nM dabigatran) was 90.8 ± 2.8 per second. The Km ([7]; 50 nM dabigatran) was 50.2 ± 2.5 µM, the kcat ([7]; 50 nM dabigatran) was 91.6 ± 4.8 per second and the Km ([7]; 75 nM dabigatran) was 71.1 ± 4.2 µM. It also gave a kcat ([7]; 75 nM dabigatran) of 95 ± 2.3 per second, a Km ([7]; 100 nM dabigatran) of 88.7 ± 3.1 µM and a kcat ([7]; 100 nM dabigatran) of 99.8 ± 3.3 per second. The Ki ([7]; Ki dabigatran, Global fit) was 28.2 ± 4.5 nM and the Ki ([7]; Ki dabigatran, Individual fit) was 21 ± 2.3 nM.
